Experimental data taken from patent US8961958B2, “High concentration self-microemulsifying coenzyme Q10 preparations for nutritional use” (Bioavailability, Inc, priority 2004, dated 2015).

Assays:
[1] = cited from earlier work
[2] = Solubility of CoQ10 in solvents; type: physicochemical
Protocol: The speed at which the CoQ10 dissolves into the solvent is primarily a function of the temperature of the solvent and its viscosity, but the base composition that is prepared at a temperature above […] will have the same properties as a base prepared at a temperature of 37° C. If CoQ10 crystals are added to solvents hot enough to melt CoQ10 (48° C. to about 52° C.) the molten CoQ10 mixes and dissolves almost immediately. On the other hand, under room temperature conditions, several hours of stirring may be required to obtain even a 5% CoQ10 concentration in a highly viscous solvent such as a triglyceride oil. By contrast, a low viscosity solvent, such as sweet orange oil can dissolve a 30% CoQ10 concentration under room temperature almost immediately. The fact that CoQ10 melts at about 48° C. to about 52° C. and then is soluble at high concentrations in a wide range of only modestly hydrophobic media, such as ethanol, is distracting to the design of high concentration CoQ10 solutions at room temperature or body temperature. Many different high concentration solutions of CoQ10 which form readily at the high temperatures of molten CoQ10 are not stable, or are meta-stable, at body temperature.
Primary considerations in the choice of an acceptable water-immiscible solvent are somewhat similar to those in choosing an acceptable surfactant. In addition to the basic requirements of bio-compatibility, low toxicity and good taste and odor, the solvent must have a melting point at or about the temperature of a human and most other mammals (about 37° C.), and be able to dissolve a substantial amount of CoQ10 below body temperature. […] Once such a solvent is identified, the saturation capacity of the solvent with CoQ10 at body temperature is then determined, and a reduction in the concentration of CoQ10 is made to ensure that mixture of the CoQ10 and solvent, along with the more hydrophilic surfactant, will not cause CoQ10 precipitation. […]

thermodynamically stable concentration of CoQ10 in sweet orange oil ([2]; sweet orange oil, body temperature): up to 55%
CoQ10 concentration dissolved in sweet orange oil ([2]; sweet orange oil, room temperature, almost immediately): 30%
CoQ10 dissolvable in triglyceride oils ([2]; triglyceride oils, body temperature): ≤ 5 % by weight
SMILES: COC1=C(OC)C(=O)C(C/C=C(\C)CC/C=C(\C)CC/C=C(\C)CC/C=C(\C)CC/C=C(\C)CC/C=C(\C)CC/C=C(\C)CC/C=C(\C)CC/C=C(\C)CCC=C(C)C)=C(C)C1=O [CoQ10, coenzyme Q10]
solubility of CoQ10 in water [1]: nearly insoluble in water
